The text below walks through data of US20120028917A1, “Use Of N-(4-((3-(2-Amino-4-Pyrimidinyl)-2-Pyridinyl)Oxy)Phenyl)-4-(4-Methyl-2-Thienyl)-1-Phthalazinamine In The Treatment Of Antimitotic Agent Resistant Cancer” (Amgen Inc., priority 2009, published 2012).

One experiment relates to MCF-7. Description: Cellular EC50, additional cell lines (Table 6-B). It counts as cell-based, human. To be noted: MCF-7, Breast. The method, then:
(§1) All high-content cell assays were performed on an ArrayScan VTi HCS Reader (Cellomics). Tumor cell lines were treated with AMG 900, AZD1152, MK-0457, or PHA-739358 (concentration range varied based on potency). The cells were prepared for intracellular staining with an anti-p-histone H3 Ser^10 antibody as previously described (1). Detection was performed with an anti-rabbit IgG-alexa-568 antibody and DAPI. The cellular levels of p-histone H3 were analyzed using Target Activation V2 algorithm (Cellomics) to determine the percentage of positive cells. For the imaging assays, the concentration-response curves and corresponding IC50 and EC50 values were calculated using the percentage of cells affected versus the DMSO control.
(§2) Tumor cells were treated with AMG 900, AZD1152, MK-0457, or PHA-739358 (range concentration varied based on potency) for 24 hours and processed for cell-cycle analysis (DNA staining only) as previously described (1). Cells were analyzed on a LSRII flow cytometer using BD FACS Diva software. The concentration-response curves and corresponding EC50 values were calculated using the percentage of cells with ≧4N DNA content versus the DMSO control.

Another experiment relates to HCT15. Description: Cellular EC50, additional cell lines (Table 6-B). It counts as cell-based, human. To be noted: P-gp+. The method, then:
as §1, §2

The subject of experiment [1] is HCT116 AZD1152-resistant. Description: Colony formation assay (FIG. 6-B). It counts as cell-based, human. As to conditions: HCT116 variant subline, at 50 nmol/L. As for the experimental part:
Tumor cell lines were obtained from the American Type Culture Collection (ATCC) unless otherwise specified. The MDA-MB-231-PTX and NCI-H460-PTX cell lines were established by growing the cells in the presence of increasing concentrations of paclitaxel over a period of 6 months. The HCT116 AZD1152-resistant cell line was established by growing the cells in the presence of AZD1152 at 80 nmol/L. Tumor cells were treated with AMG 900, paclitaxel or AZD1152 (0.5, 5, 50 nmol/L) for 48 hours, washed twice with complete media, and cells were re-plated at a density of 5000 cells per well in drug-free complete media. Cells were grown until the DMSO control wells were confluent. Cells were stained with crystal violet dye (Sigma), washed with distilled water, and imaged using a digital scanner (Hewlett-Packard). Colony formation assay was performed with HCT116 cell lines (parental and AZD1152-resistant). Cells were treated with DMSO, AMG 900, AZD1152, or paclitaxel at the indicated concentrations for 48 hours and re-plated in complete media lacking the inhibitor. After the DMSO-treated cells reached confluence, the cells were stained with crystal violet and imaged (duplicate wells).

Experiment [2] relates to MDA-MB-231 PTX paclitaxel resistant. Description: p-histone H3 fluorescence-based cell imaging assay. More on the design: species or system human. To be noted: for EC50: MDA-MB-231-PTX*, Breast, P-gp+, read-out: Cellular EC50; for IC50: MDA-MB-231 PTX paclitaxel resistant, P-gp +. The method, then:
as §1

Another experiment deals with NCI-H460 parental. As to the kind of experiment: p-histone H3 fluorescence-based cell imaging assay. As to conditions: P-gp −. Further details: species or system human. As for the experimental part:
as §1

For the next experiment, the system named is MDA-MB-231 parental. As to the kind of experiment: p-histone H3 fluorescence-based cell imaging assay. More on the design: species or system human. As to conditions: P-gp −. As for the experimental part:
as §1

The test system of experiment [3] is MES-SA-Dx5 doxorubicin resistant. Description: p-histone H3 fluorescence-based cell imaging assay. To be noted: for EC50: MES-SA Dx5*, Uterine, P-gp+, read-out: Cellular EC50; for IC50: MES-SA-Dx5 doxorubicin resistant, P-gp +. More on the design: species or system human. As for the experimental part:
as §1

The subject of experiment [4] is NCI-H460 PTX paclitaxel resistant. Description: p-histone H3 fluorescence-based cell imaging assay. More on the design: species or system human. As to conditions: for EC50: NCI-H460-PTX*, Lung, P-gp+, read-out: Cellular EC50; for IC50: NCI-H460 PTX paclitaxel resistant, P-gp +. The method, then: as §1
The next experiment deals with MES-SA parental. As to the kind of experiment: p-histone H3 fluorescence-based cell imaging assay. Further details: species or system human. To be noted: P-gp −. As for the experimental part:
as §1

For a further experiment, the system named is U226-B1. Description: ≧4N DNA content assay (flow cytometry). It counts as cell-based, human. To be noted: U226-B1, BCRP −, 24 hours. As for the experimental part: as §2
On the technique in general: A flow cytometer gives signals particle by particle.

The subject of the next experiment is RPMI8226. Description: ≧4N DNA content assay (flow cytometry). It counts as cell-based, human. The method, then: as §2
The subject of experiment [5] is HCT116 AZD1152-resistant. Description: ≧4N DNA content assay (FIG. 6-A). It counts as cell-based. To be noted: Homo sapiens, HCT-116; HCT116 AZD1152-resistant subline; 24 hours; read-out: cellular ≧4N DNA content EC50. The method, then:
Tumor cell lines were obtained from the American Type Culture Collection (ATCC) unless otherwise specified. The MDA-MB-231-PTX and NCI-H460-PTX cell lines were established by growing the cells in the presence of increasing concentrations of paclitaxel over a period of 6 months. The HCT116 AZD1152-resistant cell line was established by growing the cells in the presence of AZD1152 at 80 nmol/L.
as §2
(§3) HCT116 cell lines were treated with increasing concentrations of AMG 900 or AZD1152 for 24 hours. Flow cytometry was used to assess the accumulation of cells with ≧4N DNA content expressed as a percentage of the DMSO-treated control (POC). The concentration-response curves and calculated EC50 values were determined from two independent experiments (bars, ±SD).

In a further experiment the test system is 769P. Description: Cellular EC50, additional cell lines (Table 6-B). It counts as cell-based. As to conditions: Homo sapiens, Kidney, P-gp+. The method, then:
as §1, §2

In another experiment the test system is SNU499. As to the kind of experiment: Cellular EC50, additional cell lines (Table 6-B). As to conditions: Homo sapiens, Liver, P-gp+. It counts as cell-based. As for the experimental part: as §1, §2
The next experiment relates to HCT116 parental. As to the kind of experiment: ≧4N DNA content assay (FIG. 6-A). It counts as cell-based. To be noted: Homo sapiens, HCT-116, 24 hours, read-out: cellular ≧4N DNA content EC50. The method, then: as §2, §3
[6] abbreviates: Homo sapiens, RPMI-8226, RPMI8226, BCRP +, 24 hours, read-out: ≧4N DNA Content assay, EC50 value.
Setting [7] is: Homo sapiens, RPMI-8226**, Multiple Myeloma, P-gp− and/or BCRP+, read-out: Cellular EC50.

Molecules are shown by their SMILES. Where two headings read alike, the source gives them in different places.

`CCN(CCCOc1ccc2c(Nc3cc(CC(=O)Nc4cccc(F)c4)n[nH]3)ncnc2c1)CCOP(=O)(O)O` [AZD1152]: the EC50 is 11 nM in the experiment with MCF-7 (Homo sapiens, MCF7); over 625 nM in the experiment on HCT15 (Homo sapiens, HCT-15, Colon); over 500 nM in [2] (Homo sapiens); over 500 nM in experiment [3] (Homo sapiens); over 500 nM in experiment [4] (Homo sapiens); 12 nM in the experiment on U226-B1 (Homo sapiens). In addition, the EC50 with RPMI8226 (setting [6]) is 865 nM; with RPMI8226 (setting [7]), 865 nM; in the experiment on HCT116 AZD1152-resistant [5] it was 672 nM; with 769P, 703 nM; in the experiment on SNU499 it was over 1250 nM; with HCT116 parental, 34 nM. Besides, the “sensitivity in colony formation” value in the experiment with HCT116 AZD1152-resistant [1] is given as “insensitive”. Moreover, the half-maximal inhibitory concentration (IC50) in [2] (Homo sapiens) is over 500 nM; in the experiment with NCI-H460 parental (Homo sapiens), 131 nM; with MDA-MB-231 parental (Homo sapiens), 16 nM; in experiment [3] (Homo sapiens) it was over 500 nM; in experiment [4] (Homo sapiens) it was over 500 nM; in the experiment with MES-SA parental (Homo sapiens), 51 nM.
In the case of `Cc1cc(Nc2cc(N3CCN(C)CC3)nc(Sc3ccc(NC(=O)C4CC4)cc3)n2)n[nH]1` [MK-0457], the EC50 is 27 nM in the experiment on MCF-7; 908 nM in the experiment on HCT15 (Colon); 277 nM in experiment [2]; over 1250 nM in experiment [3]; 468 nM in experiment [4]; 46 nM in the experiment on U226-B1. In addition, the EC50 was 162 nM with RPMI8226 (RPMI8226, BCRP +, 24 hours, read-out: ≧4N DNA Content assay, EC50 value) and 162 nM with RPMI8226 (RPMI-8226**, Multiple Myeloma, P-gp− and/or BCRP+, read-out: Cellular EC50). Further, the IC50 in experiment [2] was 277 nM; in the experiment on NCI-H460 parental, 123 nM; in the experiment with MDA-MB-231 parental, 43 nM; in experiment [3] it was over 1250 nM; in experiment [4], 468 nM; with MES-SA parental, 51 nM.
On to `CO[C@@H](C(=O)N1Cc2n[nH]c(NC(=O)c3ccc(N4CCN(C)CC4)cc3)c2C1)c1ccccc1` [PHA-739358], for which the concentration giving a half-maximal response (EC50) is 68 nM in the experiment on MCF-7 (Homo sapiens, MCF7); over 1250 nM in the experiment on HCT15 (Homo sapiens, HCT-15, Colon); over 1250 nM in [2] (Homo sapiens); over 1250 nM in [3] (Homo sapiens); over 1250 nM in [4] (Homo sapiens); 67 nM in the experiment on U226-B1 (Homo sapiens). For the same compound, the concentration giving a half-maximal response (EC50) with RPMI8226 (setting [6]), with RPMI8226 (setting [7]), in the experiment with 769P and in the experiment with SNU499 was over 1250 nM throughout. The IC50 in experiment [2] (Homo sapiens) was over 1250 nM; in the experiment with NCI-H460 parental (Homo sapiens), 510 nM; with MDA-MB-231 parental (Homo sapiens) it was 49 nM; in [3] (Homo sapiens) it was over 1250 nM; in experiment [4] (Homo sapiens), over 1250 nM; in the experiment on MES-SA parental (Homo sapiens) it was 113 nM.

What is called EC50 is the concentration giving half of the maximal effect. In general, IC50 refers to the concentration needed to halve the response being measured.
